# What was measured:
# WT hepatocytes = test: Confocal BODIPY/TMRE imaging of lipid droplets and mitochondrial potential in hepatocytes; assay type: cell-based, murine; details: 50 μM, 48 hours
# Protocol: CPACC treatment enhances adipose browning and lowers whole body weight. Given the potent mMg^2+ uptake inhibiting properties and low toxicity of CPACC, we hypothesized that CPACC could mimic Mrs2^−/− cellular phenotype. WT hepatocytes isolated from over 12 months old mice were treated with 50 μM CPACC for 48 hours. Control and CPACC treated hepatocytes were stained with BODIPY and TMRE for intracellular tracing using confocal imaging. […] Next it was determined if CPACC treatment affects the mitochondrial oxygen consumption rate. Freshly isolated WT hepatocytes were treated with 5-25 μM concentrations of CPACC for 16 hours before measurement of oxygen consumption rate. […] Since it was observed an enhancement of basal OCR in CPACC treated hepatocytes, the extracellular acidification rate was measured in control and CPACC treated hepatocytes and found it to be higher in the CPACC condition indicating higher glycolytic activity (FIG. 11G). […]
# Confocal microscopic examination of cellular lipid localization and maintenance. […] Leica Application Suite X was used to quantify lipid-mitochondrial colocalization using line scan analysis followed by smooth curve fitting. […] The lipid droplet sizes and mitochondrial membrane potential were quantified using both Leica Application Suite X and ImageJ. All data was analyzed using GraphPad Prism v8.
# [1] = HFD-fed WT mice treated with CPACC i.p.; assay type: in vivo
# Protocol: CPACC treatment enhances adipose browning and lowers whole body weight. Given the potent mMg^2+ uptake inhibiting properties and low toxicity of CPACC, we hypothesized that CPACC could mimic Mrs2^−/− cellular phenotype. WT hepatocytes isolated from over 12 months old mice were treated with 50 μM CPACC for 48 hours. Control and CPACC treated hepatocytes were stained with BODIPY and TMRE for intracellular tracing using confocal imaging. […] Next it was determined if CPACC treatment affects the mitochondrial oxygen consumption rate. Freshly isolated WT hepatocytes were treated with 5-25 μM concentrations of CPACC for 16 hours before measurement of oxygen consumption rate. […] Since it was observed an enhancement of basal OCR in CPACC treated hepatocytes, the extracellular acidification rate was measured in control and CPACC treated hepatocytes and found it to be higher in the CPACC condition indicating higher glycolytic activity (FIG. 11G). Having observed that pharmacologic blockade of Mrs2 by CPACC reduced lipid droplet size and enhanced mitochondrial function, it was asked whether in vivo administration of CPACC lowers body weight gain. 12 weeks HFD-fed WT mice were treated with CPACC (20 mg/kg) via intraperitoneal injection every three days over 6 weeks. […] Because it was observed browning/beiging in Mrs2^−/− iWAT, UCP1 expression by RT-qPCR was tested, confirming induction in the iWAT of CPACC treated mice.
# Animal models. Wild-type (WT) and Mrs2^−/− (KO) C57BL/6J mice were housed and maintained in our animal breeding facility with prior approval and accordance with the Institutional Animal Care and Use Committee (IACUC). Mice were fed a Western Diet (WD; Research Diets D09100310), a standard Chow Diet (CD; Envigo 7012), or a High Fat Diet (HFD; Research Diets D12492). For most experiments, WT and KO mice were maintained on the WD or the CD starting at 12 weeks of age. With termination at 12 months. WT mice maintained on a HFD starting at 6 weeks were administered control (saline) or CPACC (20 mg/kg BW in saline) I.P. every 3 days starting after 6 weeks of maintained diet. Body weight, health, and food were measured regularly for all groups. […]
# Plasma alanine transaminase activity and citrate measurements. Liver function and damage was determined by measuring alanine transaminase (ALT). The ALT activity in the plasma was determined using the Alanine Transaminase Activity Assay Kit (Abcam ab105134) following manufacturer's protocol. The plasma ALT levels over two different time points were obtained and corresponding ALT activity was determined by reading in a plate reader at 570 nm. […] Citrate levels were determined using the Citrate Assay Kit (Abcam ab83396) by reading in a plate reader at 570 nm following the manufacturer's protocol. […]
structure (smiles),measurement,setting,value
"[NH2][Co]([NH2])([NH2])([NH2])([NH2])[Cl] [CPACC, chloropentaammine cobalt (III) chloride]",effect on mitochondrial function (TMRE),WT hepatocytes,no negative effect
same,lipid droplet size,WT hepatocytes; hepatocytes from over 12 months old mice,marked reduction of lipid droplet size
same,RT-qPCR analysis of WAT tissue (HIF-1α pathway),"[1]; HFD mice, 20 mg/kg i.p.",transcriptional signature of HIF-1α activation
same,UCP1 expression in iWAT by RT-qPCR,"[1]; HFD-fed WT mice, 20 mg/kg i.p.",induction
same,body weight gain,"[1]; HFD-fed WT mice, 20 mg/kg i.p. every three days over 6 weeks",restricted body weight gain
same,Plasma ALT levels,"[1]; HFD-fed WT mice, 20 mg/kg i.p., versus control group",lower
